Assay results from ChEMBL document CHEMBL1201862, “PubChem BioAssay data set” (2004).
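A five-concentration, 48-hour dose response in 96-well plates underlies each endpoint, interpolated linearly between surrounding concentrations. At the GI50, growth is halved.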 Calls of active or inactive are those of the source. Cut-off read from the data, not from the text of the source: active = GI50 up to about 1.1 µM and inactive = higher.

How the values were obtained:
Test in all cases: NCI tumour cell line growth inhibition, 48 h
786-0 = test system: 786-0
A498 = test system: A498
A549 = test system: A549
ACHN = test system: ACHN
CAKI-1 = test system: CAKI-1
CCRF-CEM = test system: CCRF-CEM
COLO 205 = test system: COLO 205
DLD-1 = test system: DLD-1
DMS-114 = test system: DMS-114
DMS-273 = test system: DMS-273
EKVX = test system: EKVX
HCC 2998 = test system: HCC 2998
HCT-116 = test system: HCT-116
HCT-15 = test system: HCT-15
HL-60 = test system: HL-60
HOP-18 = test system: HOP-18
HOP-62 = test system: HOP-62
HOP-92 = test system: HOP-92
HT-29 = test system: HT-29
IGROV-1 = test system: IGROV-1
K562 = test system: K562
KM-20L2 = test system: KM-20L2
KM12 = test system: KM12
LOX IMVI = test system: LOX IMVI
LXFL 529 = test system: LXFL 529
M14 = test system: M14
M19-MEL = test system: M19-MEL
MOLT-4 = test system: MOLT-4
Malme-3M = test system: Malme-3M
NCI-H226 = test system: NCI-H226
NCI-H23 = test system: NCI-H23
NCI-H460 = test system: NCI-H460
NCI-H522 = test system: NCI-H522
OVCAR-3 = test system: OVCAR-3
OVCAR-4 = test system: OVCAR-4
OVCAR-5 = test system: OVCAR-5
OVCAR-8 = test system: OVCAR-8
RPMI-8226 = test system: RPMI-8226
RXF 393 = test system: RXF 393
RXF 631 = test system: RXF 631
SF-268 = test system: SF-268
SF-295 = test system: SF-295
SF-539 = test system: SF-539
SK-MEL-28 = test system: SK-MEL-28
SK-MEL-2 = test system: SK-MEL-2
SK-MEL-5 = test system: SK-MEL-5
SK-OV-3 = test system: SK-OV-3
SN12C = test system: SN12C
SNB-19 = test system: SNB-19
SNB-75 = test system: SNB-75
SNB-78 = test system: SNB-78
SW-620 = test system: SW-620
TK-10 = test system: TK-10
U-251 = test system: U-251
UACC-257 = test system: UACC-257
UACC-62 = test system: UACC-62
UO-31 = test system: UO-31
SR = test system: SR
XF498 = test system: XF498

Measured: GI50

CSc1ccc2c(cc1=O)[C@@H](NC(=O)c1ccc(F)cc1)CCc1cc(O)c(O)c(O)c1-2
inactive: 786-0 > 100 µM | A498 > 100 µM | A549 > 100 µM | ACHN > 100 µM | CAKI-1 > 100 µM | CCRF-CEM 56 µM | COLO 205 > 100 µM | DLD-1 > 100 µM | DMS-114 > 100 µM | DMS-273 > 100 µM | EKVX > 100 µM | HCC 2998 > 100 µM | HCT-116 > 100 µM | HL-60 > 100 µM | HOP-18 > 100 µM | HOP-62 > 100 µM | HOP-92 84.9 µM | HT-29 > 100 µM | IGROV-1 > 100 µM | K562 64.3 µM | KM-20L2 > 100 µM | KM12 > 100 µM | LOX IMVI > 100 µM | LXFL 529 > 100 µM | M14 > 100 µM | M19-MEL > 100 µM | MOLT-4 > 100 µM | Malme-3M > 100 µM | NCI-H226 > 100 µM | NCI-H23 > 100 µM | NCI-H460 > 100 µM | NCI-H522 > 100 µM | OVCAR-3 > 100 µM | OVCAR-4 > 100 µM | OVCAR-5 > 100 µM | OVCAR-8 > 100 µM | RPMI-8226 > 100 µM | RXF 393 > 100 µM | RXF 631 > 100 µM | SF-268 > 100 µM | SF-295 > 100 µM | SF-539 > 100 µM | SK-MEL-28 > 100 µM | SK-MEL-2 > 100 µM | SK-MEL-5 > 100 µM | SK-OV-3 > 100 µM | SN12C > 100 µM | SNB-19 > 100 µM | SNB-75 > 100 µM | SNB-78 > 100 µM | SW-620 > 100 µM | TK-10 > 100 µM | U-251 > 100 µM | UACC-257 > 100 µM | UACC-62 > 100 µM | UO-31 > 100 µM
> 100 µM: HCT-15

O=C(NC1CCCCC1)NS(=O)(=O)c1ccc2c(c1)CCC2 [GLYHEXAMIDE]
inactive: 786-0 > 100 µM | A549 > 100 µM | ACHN > 100 µM | CCRF-CEM > 100 µM | COLO 205 > 100 µM | DLD-1 > 100 µM | DMS-114 > 100 µM | EKVX > 100 µM | HCC 2998 > 100 µM | HL-60 > 100 µM | HOP-18 > 100 µM | HOP-92 > 100 µM | IGROV-1 > 100 µM | K562 > 100 µM | KM12 > 100 µM | LOX IMVI > 100 µM | M14 > 100 µM | M19-MEL > 100 µM | MOLT-4 > 100 µM | Malme-3M > 100 µM | NCI-H226 > 100 µM | NCI-H23 > 100 µM | NCI-H522 > 100 µM | OVCAR-3 > 100 µM | OVCAR-5 > 100 µM | OVCAR-8 > 100 µM | RPMI-8226 > 100 µM | RXF 393 > 100 µM | RXF 631 > 100 µM | SF-268 > 100 µM | SF-295 > 100 µM | SF-539 > 100 µM | SK-MEL-28 > 100 µM | SK-MEL-2 > 100 µM | SK-OV-3 > 100 µM | SN12C > 100 µM | SNB-19 > 100 µM | SNB-75 > 100 µM | SR > 100 µM | SW-620 > 100 µM | TK-10 > 100 µM | U-251 > 100 µM | UACC-257 > 100 µM | UACC-62 > 100 µM | UO-31 > 100 µM | XF498 > 100 µM
> 100 µM: HCT-15

N#CCCN(CCC#N)c1ccc(/C=N\c2nc(-c3ccccc3)cs2)cc1
inactive: 786-0 > 100 µM | A498 > 100 µM | A549 > 100 µM | ACHN > 100 µM | CAKI-1 > 100 µM | COLO 205 > 100 µM | DLD-1 > 100 µM | DMS-114 73.3 µM | DMS-273 > 100 µM | EKVX > 100 µM | HCT-116 > 100 µM | HL-60 > 100 µM | HOP-62 84.3 µM | HOP-92 50.8 µM | HT-29 > 100 µM | IGROV-1 > 100 µM | K562 > 100 µM | KM-20L2 > 100 µM | LOX IMVI > 100 µM | LXFL 529 > 100 µM | M14 > 100 µM | M19-MEL > 100 µM | MOLT-4 > 100 µM | Malme-3M > 100 µM | NCI-H226 > 100 µM | NCI-H23 > 100 µM | NCI-H460 > 100 µM | NCI-H522 49.3 µM | OVCAR-3 > 100 µM | OVCAR-4 63.4 µM | OVCAR-5 > 100 µM | OVCAR-8 > 100 µM | RPMI-8226 > 100 µM | RXF 393 39.7 µM | RXF 631 > 100 µM | SF-268 > 100 µM | SF-295 45.7 µM | SF-539 > 100 µM | SK-MEL-28 > 100 µM | SK-MEL-2 > 100 µM | SK-MEL-5 > 100 µM | SK-OV-3 > 100 µM | SN12C > 100 µM | SNB-19 > 100 µM | SNB-75 29.8 µM | SNB-78 > 100 µM | SW-620 > 100 µM | TK-10 81.7 µM | UACC-257 > 100 µM | UACC-62 > 100 µM | UO-31 > 100 µM | XF498 56.8 µM
> 100 µM: HCT-15
